From ChEMBL document CHEMBL1126381, “2-carboxy indolines and indoles as potential glycine/NMDA antagonists: effect of five-membered ring conformation on affinity” (Bioorg Med Chem Lett, 1992)

Columns and labels:
[1] = molecular target: Glutamate receptor ionotropic, NMDA 1 (Rattus norvegicus, UniProt P35439); assay: Inhibition of [3H]L-689,560 binding to Glycine site of NMDA receptor of rat cortical membranes; type: cell membranes, Membrane
Mus musculus [2] = assay: In vivo activity in DBA/2 Mouse audiogenic seizure model was determined by testing number of animals protected after a dose of 50 mg/Kg i.p.; Number of animals tested 8 mice; type: functional
Mus musculus [3] = assay: In vivo activity in DBA/2 Mouse audiogenic seizure model was determined by testing number of animals protected after a dose of 100 mg/Kg i.p.; Number of animals tested 8 mice; type: functional

| SMILES | IC50 [1] [µM] | Animals protected (Mus musculus [2]) | Animals protected (Mus musculus [3]) |
| --- | --- | --- | --- |
| NC(=O)[C@@H]1c2ccc(Cl)cc2N[C@H]1C(=O)O | > 100 |  |  |
| O=C(O)C[C@@H]1c2ccc(Cl)cc2N[C@H]1C(=O)O | > 100 |  |  |
| O=C(O)CCc1c(C(=O)O)[nH]c2cc(Cl)cc(Cl)c12 | 0.07 | 0 | 6 |
| NC(=O)c1c(C(=O)O)[nH]c2cc(Cl)ccc12 | 0.81 |  |  |
| O=C(O)[C@@H]1c2ccc(Cl)cc2N[C@H]1C(=O)O | > 100 |  |  |

The next lines start with results.

| IC50 [1] [µM] | SMILES | Animals protected (Mus musculus [2]) | Animals protected (Mus musculus [3]) |
| --- | --- | --- | --- |
| > 300 | COC(=O)[C@@H]1c2ccc(Cl)cc2N[C@H]1C(=O)O |  |  |
| > 100 | O=C(O)[C@@H]1Nc2cc(Cl)ccc2[C@H]1CO |  |  |
| > 100 | O=C(OC[C@@H]1c2ccc(Cl)cc2N[C@H]1C(=O)O)c1ccccc1 |  |  |
| 0.027 | Nc1ccc(CNC(=O)CCc2c(C(=O)O)[nH]c3cc(Cl)cc(Cl)c23)cc1 |  | 1 |
| 9 | O=C(O)c1[nH]c2cc(Cl)ccc2c1CO |  |  |
| 0.036 | O=C(CCc1c(C(=O)O)[nH]c2cc(Cl)cc(Cl)c12)Nc1ccccc1 |  |  |
| > 100 | COC(=O)C1(C(=O)OC)c2ccc(Cl)cc2N[C@H]1C(=O)O |  |  |
